The text below walks through data of US20200199647A1, “ASSAY FOR SCREENING MODULATORS OF HOLOPHOSPHATASE ACTIVITY” (UNITED KINGDOM RESEARCH AND INNOVATION, priority 2017, published 2020).

For test [1], the target named is T1, R15A (Homo sapiens, UniProt O75807).
T1 construct: PPP1R15A amino acids 325-636 (R15A); His6 (C); made in house; host or cells: E. coli BL21 pLysS
Briefly: Light scattering to monitor aggregation of R15A. The settings on record: 1 mM compound, 5 μM R15A, 10 min, 20° C. The method, then: Samples were incubated for 10 min at RT. […] Therefore, light scattering was measured at 380 nm emission, 380 nm absorption to monitor the presence of aggregates. For each sample, 100 data points were collected over a period of 10 min, at 20° C., with constant stirring.

Test [2] concerns the target T1, R15A. The experiment in a line: Binding of R15A to biotinylated compounds on Streptavidin beads and elution. The method, then: Purified R15A protein was diluted to 1 μM in IP buffer (50 mM Tris [pH 7.4], 150 mM NaCl, 0.1% Tween20, 10% glycerol). 1 μM R15A, in 100 μl volume, was pre-cleared with 25 μl of Pierce Streptavidin Magnetic Beads (ThermoFisher) for 1 h at 4° C. with rotation at 20 rpm. […] Samples were incubated for 3 h at 4° C. with rotation at 20 rpm. The supernatant was removed, and samples were thoroughly washed and transferred to a fresh Eppendorf. The beads were washed thoroughly with 5×1 ml interaction buffer, with 30 min incubation each time, and then resuspended with 50 μl of 4% SDS Laemmli sample buffer. Samples were run on 4-12% NuPAGE Bis-Tris gels (Life Technologies), and analysed by immunoblotting using α-MBP HRP (E8038) (NEB) (to reveal R15A). […] Samples were incubated for 10 min at 4° C. with 20 rpm rotation. 30 μl of supernatant was added to 10 μl of 16% SDS Laemmli sample buffer. 10 μl sample was run on 4-12% NuPAGE Bis-Tris gel (Life Technologies), and analysed by immunoblotting using α-MBP HRP (E8038) (NEB) (to reveal R15A).

In test [3] the target is T2, PP1 (1 μM) in the presence of R15A (Homo sapiens, UniProt O75807).
T2 construct: PPP1R15A amino acids 325-636 (R15A); His6 (C); made in house; host or cells: E. coli BL21 pLysS (R15A, eIF2α); E. coli BL21/pGro7 (PP1c)
T2 sequence (O75807 325-636, stated change not applied): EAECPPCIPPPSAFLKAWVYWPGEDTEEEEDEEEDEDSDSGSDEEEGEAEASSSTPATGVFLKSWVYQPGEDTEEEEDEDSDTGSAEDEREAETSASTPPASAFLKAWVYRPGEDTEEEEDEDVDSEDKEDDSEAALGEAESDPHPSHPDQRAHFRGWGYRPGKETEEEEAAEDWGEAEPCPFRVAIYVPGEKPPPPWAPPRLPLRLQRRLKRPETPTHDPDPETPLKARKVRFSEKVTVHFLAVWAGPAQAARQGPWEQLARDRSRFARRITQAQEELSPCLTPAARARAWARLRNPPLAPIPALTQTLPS
T2 sequence (P62136 7-330 partner): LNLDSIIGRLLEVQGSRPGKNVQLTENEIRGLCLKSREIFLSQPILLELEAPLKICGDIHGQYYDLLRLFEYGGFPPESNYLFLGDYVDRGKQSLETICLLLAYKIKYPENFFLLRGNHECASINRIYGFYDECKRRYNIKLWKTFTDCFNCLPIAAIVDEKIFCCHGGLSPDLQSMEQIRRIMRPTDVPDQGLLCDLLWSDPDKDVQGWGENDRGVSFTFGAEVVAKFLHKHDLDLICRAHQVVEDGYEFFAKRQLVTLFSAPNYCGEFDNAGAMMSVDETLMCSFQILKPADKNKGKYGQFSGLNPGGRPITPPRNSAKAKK
The experiment in a line: In vitro dephosphorylation of P-eIF2α using stoichiometric PP1c (1 μM) with R15A. The class given is biochemical. The settings on record: 1 μM PP1c, 1 μM P-eIF2α, 30° C., 16 h; compounds 100 μM. As for the experimental part: (§1) PP1c was diluted to the appropriate concentration (as indicated in the figure legends) in dephosphorylation buffer immediately prior to use. Dephosphorylation reactions were carried out by pre-incubating diluted PP1c in the presence or absence of regulatory subunits (either […]), and/or compounds (all at 100 μM, except for Salubrinal which was used at 30 μM), for 15′ at RT. All compounds were diluted in DMSO, and DMSO vehicle was used in all control experiments.
The reaction was initiated by the addition of 1 μM P-eIF2α or ^33P Phosphorylase a substrates and then incubated at 30° C. for 16 h with shaking at 350 rpm. Reactions were stopped by addition of 4× Laemmli sample buffer. eIF2α samples were analyzed by immunoblotting or Phos-tag gels. […] Samples in FIG. 8 and FIG. 16 were run on a 15% SuperSep Phos-tag acrylamide gel (Alpha Laboratories) and visualized by staining with InstantBlue Protein Stain.

Test [4] deals with T3, PP1 (1 μM) in the presence of R15B (Homo sapiens, UniProt Q5SWA1).
T3 construct: PPP1R15B amino acids 340-698 (R15B); His6 (C); made in house; host or cells: E. coli BL21 pLysS (R15B, eIF2α); E. coli BL21/pGro7 (PP1c)
T3 sequence (Q5SWA1 340-698): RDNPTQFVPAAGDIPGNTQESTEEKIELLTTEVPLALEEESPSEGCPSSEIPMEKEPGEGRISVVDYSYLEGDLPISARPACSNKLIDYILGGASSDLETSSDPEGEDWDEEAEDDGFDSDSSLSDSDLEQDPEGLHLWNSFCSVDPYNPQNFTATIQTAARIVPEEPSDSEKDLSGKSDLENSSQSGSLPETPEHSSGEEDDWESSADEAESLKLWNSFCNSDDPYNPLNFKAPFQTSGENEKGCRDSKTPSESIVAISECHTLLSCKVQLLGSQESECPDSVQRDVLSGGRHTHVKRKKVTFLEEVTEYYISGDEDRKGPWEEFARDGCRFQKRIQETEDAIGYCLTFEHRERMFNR
T3 sequence (P62136 7-330 partner limits assumed): as the sequence (P62136 7-330 partner) above
The experiment in a line: In vitro dephosphorylation of P-eIF2α using stoichiometric PP1c (1 μM) with R15B. The settings on record: 1 μM PP1c, 1 μM P-eIF2α, 30° C., 16 h; compound 100 μM. The format is biochemical. The method, then:
as §1
The reaction was initiated by the addition of 1 μM P-eIF2α or ^33P Phosphorylase a substrates and then incubated at 30° C. for 16 h with shaking at 350 rpm. Reactions were stopped by addition of 4× Laemmli sample buffer. eIF2α samples were analyzed by immunoblotting or Phos-tag gels. P-eIF2α dephosphorylation was analysed by immunoblotting using anti-Phospho-eIF2α (SerS1) (#9721) (Cell Signaling) and anti-eIF2α (ab26197) (AbCam) antibodies. Samples in FIG. 8 and FIG. 16 were run on a 15% SuperSep Phos-tag acrylamide gel (Alpha Laboratories) and visualized by staining with InstantBlue Protein Stain.
As previously reported (Connor et al., 2001), in vitro PP1c alone (1 μM) dephosphorylated eIF2α, and in vitro co-incubation with R15A had no effect in this assay (FIG. 1A). […]

T1 sequence (O75807 325-636, stated change not applied): as the sequence (O75807 325-636, stated change not applied) above

`N=C(N)N/N=C/c1c(Cl)cccc1Cl` [Guanabenz]: the “aggregation of R15A (light scattering at 380 nm)” value on R15A [1] is given as “No aggregation”. At R15A [2] (0.5 mM biotinylated compound on Streptavidin beads, 1 μM R15A), the “binding to R15A” value is given as “directly bind R15A”. Further, on R15A [2] (elution with 2 mM free compound), the “nature of binding to R15A (elution with excess compound)” value is “not covalent”. In test [3], the “effect on dephosphorylation of eIF2α by PP1c with R15A” value is “neither the selective R15A inhibitors, Guanabenz and Sephin1, nor the selective inhibitor of R15B, Raphin1, had any measurable effects”.
`NC(N)=N/N=C/c1cccc(Cl)c1Cl` [Raphin1]: in test [4], the “effect on dephosphorylation of eIF2α by PP1c with R15B” value was “nor the selective inhibitor of R15B, Raphin1, had any measurable effects”.
